For experiment [1], the target named is T1, hEP2 (Homo sapiens (Human), UniProt P43116). Kind of experiment: Radioligand binding ([3H]PGE2), HEK-293 cell membranes expressing EP2 receptor. To be noted: top number in Table 2. How it is done:
(§1) HEK-293 cells stably expressing the human or feline FP receptor, or EP1, EP2, EP3, or EP4 receptors were washed with TME buffer, scraped from the bottom of the flasks, and homogenized for 30 sec using a Brinkman PT 10/35 polytron. TME buffer was added to achieve a final 40 ml volume in the centrifuge tubes (the composition of TME is 100 mM TRIS base, 20 mM MgCl2, […]; 10N HCl is added to achieve a pH of 7.4).
(§2) The cell homogenate was centrifuged at 19000 r.p.m. for 20 min at 4° C. using a Beckman Ti-60 rotor. The resultant pellet was resuspended in TME buffer to give a final 1 mg/ml protein concentration, as determined by Biorad assay. Radioligand binding competition assays vs. [^3H-]17-phenyl PGF2α, (5 nM) were performed in a 100 μl volume for 60 min. Binding reactions were started by adding plasma membrane fraction. The reaction was terminated by the addition of 4 ml ice-cold TRIS-HCl buffer and rapid filtration through glass fiber GF/B filters using a Brandel cell harvester. The filters were washed 3 times with ice-cold buffer and oven dried for one hour. Non-specific binding was determined with 10 uM unlabeled 17-phenyl PGF2α.
(§3) [^3H-] PGE2 (5 nM; specific activity 180 Ci mmol) was used as the radioligand for EP receptors. Binding studies employing EP1, EP2, EP3, EP4 were performed in duplicate in at least three separate experiments. A 200 μl assay volume was used. Incubations were for 60 min at 25° C. and were terminated by the addition of 4 ml of ice-cold 50 mM TRIS-HCl, followed by rapid filtration through Whatman GF/B filters and three additional 4 ml washes in a cell harvester (Brandel). Non-specific binding determined with 10^−5M of unlabeled PGE2.

Experiment [2] has as its target T2, hEP4 (Homo sapiens (Human), UniProt P35408). Kind of experiment: Radioligand binding ([3H]PGE2), HEK-293 cell membranes expressing EP4 receptor. To be noted: top number in Table 2. How it is done:
as §1, §2, §3

Experiment [3] has as its target hIP (Homo sapiens (Human), UniProt P43119). Kind of experiment: Table 2 top number, hIP (radioligand binding per footnote). To be noted: top number in Table 2.
Experiment [4] concerns the target T2, hEP4. Kind of experiment: FLIPR calcium signal, HEK-293(EBNA) cells expressing hEP4/Gqs5. To be noted: bottom number in Table 2, read-out: hEP4 functional EC50. It counts as cell-based. How it is done:
(§4) HEK-293(EBNA) cells, stably expressing one type or subtype of recombinant human prostaglandin receptors (prostaglandin receptors expressed: hDP/Gqs5; hEP1; hEP2/Gqs5; hEP3A/Gqi5; hEP4/Gqs5; hFP; hIP; hTP), were cultured in 100 mm culture dishes in high-glucose DMEM medium containing 10% fetal bovine serum, 2 mM 1-glutamine, 250 μg/ml geneticin (G418) and 200 μg/ml hygromycin B as selection markers, and 100 units/ml penicillin G, 100 μg/m streptomycin and 0.25 μg/m amphotericin B.
(§5) Cells were seeded at a density of 5×10^4 cells per well in Biocoat® Poly-D-lysine-coated black-wall, clear-bottom 96-well plates (Becton-Dickinson) and allowed to attach overnight in an incubator at 37° C. Cells were then washed two times with HBSS-HEPES buffer (Hanks Balanced Salt Solution without bicarbonate and phenol red, 20 mM HEPES, pH 7.4) using a Denley Cellwash plate washer (Labsystems). After 45 minutes of dye-loading in the dark, using the calcium-sensitive dye Fluo-4 AM at a final concentration of 2 μM, plates were washed four times with HBSS-HEPES buffer to remove excess dye leaving 100 μl in each well. Plates were re-equilibrated to 37° C. for a few minutes.
Cells were excited with an Argon laser at 488 nm, and emission was measured through a 510-570 nm bandwidth emission filter (FLIPR™, Molecular Devices, Sunnyvale, Calif.). […] The peak increase in fluorescence intensity was recorded for each well. On each plate, four wells each served as negative (HBSS-HEPES buffer) and positive controls (standard agonists: BW245C (hDP); PGE2 (hEP1; hEP2/Gqs5; hEP3A/Gqi5; hEP4/Gqs5); PGF2 (hFP); carbacyclin (hIP); U-46619 (hTP), depending on receptor). The peak fluorescence change in each drug-containing well was then expressed relative to the controls.
Compounds were tested in a high-throughput (HTS) or concentration-response (CoRe) format. In the HTS format, forty-four compounds per plate were examined in duplicates at a concentration of 10^−5 M. To generate concentration-response curves, four compounds per plate were tested in duplicates in a concentration range between 10^−5 and 10^−11 M. The duplicate values were averaged.

For experiment [5], the target named is hEP1 (Homo sapiens (Human), UniProt P34995). Kind of experiment: Radioligand binding ([3H]PGE2), HEK-293 cell membranes expressing EP1 receptor. To be noted: top number in Table 2. How it is done: as §1, §2, §3
Chain of hEP1 (P34995 whole entry): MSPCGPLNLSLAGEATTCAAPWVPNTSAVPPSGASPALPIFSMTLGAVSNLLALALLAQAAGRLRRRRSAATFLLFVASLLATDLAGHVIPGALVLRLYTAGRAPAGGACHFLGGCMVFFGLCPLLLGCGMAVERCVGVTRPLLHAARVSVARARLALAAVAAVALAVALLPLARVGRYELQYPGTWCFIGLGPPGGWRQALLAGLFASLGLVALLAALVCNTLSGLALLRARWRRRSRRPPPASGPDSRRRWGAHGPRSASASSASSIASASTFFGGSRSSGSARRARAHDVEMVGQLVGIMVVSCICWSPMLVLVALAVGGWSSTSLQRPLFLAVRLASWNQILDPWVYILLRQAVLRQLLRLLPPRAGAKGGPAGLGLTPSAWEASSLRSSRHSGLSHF
Experiment [6] deals with hEP3D (Homo sapiens (Human), UniProt P43115). Kind of experiment: Radioligand binding ([3H]PGE2), HEK-293 cell membranes expressing EP3 receptor. To be noted: top number in Table 2. How it is done: as §1, §2, §3
Chain of hEP3D (P43115 other isoform, or with tags, fused parts or gaps): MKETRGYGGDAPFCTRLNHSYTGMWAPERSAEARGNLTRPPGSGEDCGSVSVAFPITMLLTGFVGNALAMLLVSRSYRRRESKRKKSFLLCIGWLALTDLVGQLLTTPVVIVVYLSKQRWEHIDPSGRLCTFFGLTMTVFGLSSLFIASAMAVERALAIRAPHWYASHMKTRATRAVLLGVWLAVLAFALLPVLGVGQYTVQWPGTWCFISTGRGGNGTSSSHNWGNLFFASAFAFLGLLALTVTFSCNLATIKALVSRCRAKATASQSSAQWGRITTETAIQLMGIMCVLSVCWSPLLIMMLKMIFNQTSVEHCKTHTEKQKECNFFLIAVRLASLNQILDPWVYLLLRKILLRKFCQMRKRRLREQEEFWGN
In experiment [7] the target is hTP (Homo sapiens (Human), UniProt P21731). Kind of experiment: Table 2 top number, hTP (radioligand binding per footnote). To be noted: top number in Table 2.
Chain of hTP (P21731 whole entry): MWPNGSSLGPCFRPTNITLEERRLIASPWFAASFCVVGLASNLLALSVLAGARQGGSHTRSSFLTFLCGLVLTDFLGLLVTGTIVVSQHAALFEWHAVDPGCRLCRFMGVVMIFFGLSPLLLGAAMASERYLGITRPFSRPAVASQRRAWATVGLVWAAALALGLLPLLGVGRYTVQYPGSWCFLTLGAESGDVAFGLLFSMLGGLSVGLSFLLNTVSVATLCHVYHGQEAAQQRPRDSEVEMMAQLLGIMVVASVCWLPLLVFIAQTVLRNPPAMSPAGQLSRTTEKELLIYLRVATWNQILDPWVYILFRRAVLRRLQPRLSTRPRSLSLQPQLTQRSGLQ
In experiment [8] the target is hEP3A (Homo sapiens (Human), UniProt P43115). Kind of experiment: FLIPR calcium signal, HEK-293(EBNA) cells expressing hEP3A/Gqi5. In kind it is cell-based. To be noted: for EC50: bottom number in Table 2, read-out: hEP3A functional EC50. How it is done:
as §4, §5
Cells were excited with an Argon laser at 488 nm, and emission was measured through a 510-570 nm bandwidth emission filter (FLIPR™, Molecular Devices, Sunnyvale, Calif.). Drug solution was added in a 50 μl volume to each well to give the desired final concentration. The peak increase in fluorescence intensity was recorded for each well. On each plate, four wells each served as negative (HBSS-HEPES buffer) and positive controls (standard agonists: BW245C (hDP); PGE2 (hEP1; hEP2/Gqs5; hEP3A/Gqi5; hEP4/Gqs5); PGF2 (hFP); carbacyclin (hIP); U-46619 (hTP), depending on receptor). The peak fluorescence change in each drug-containing well was then expressed relative to the controls.
Compounds were tested in a high-throughput (HTS) or concentration-response (CoRe) format. In the HTS format, forty-four compounds per plate were examined in duplicates at a concentration of 10^−5 M. To generate concentration-response curves, four compounds per plate were tested in duplicates in a concentration range between 10^−5 and 10^−11 M. The duplicate values were averaged. In either, HTS or CoRe format each compound was tested on at least 3 separate plates using cells from different passages to give an n≧3.

The target of experiment [9] is hDP (Homo sapiens (Human), UniProt Q13258). Kind of experiment: Table 2 top number, hDP (radioligand binding per footnote). To be noted: top number in Table 2.
Chain of hDP (Q13258 whole entry): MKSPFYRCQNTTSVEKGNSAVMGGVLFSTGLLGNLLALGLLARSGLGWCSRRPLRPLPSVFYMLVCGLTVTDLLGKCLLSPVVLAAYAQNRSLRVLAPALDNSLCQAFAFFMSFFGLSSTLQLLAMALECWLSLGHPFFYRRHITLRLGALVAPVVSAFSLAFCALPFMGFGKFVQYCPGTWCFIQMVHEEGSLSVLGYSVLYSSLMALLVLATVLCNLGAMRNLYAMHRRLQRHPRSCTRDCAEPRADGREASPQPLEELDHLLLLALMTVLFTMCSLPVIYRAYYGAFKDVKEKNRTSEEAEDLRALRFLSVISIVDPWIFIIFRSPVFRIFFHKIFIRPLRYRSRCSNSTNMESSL
Experiment [10] concerns the target T1, hEP2. Kind of experiment: FLIPR calcium signal, HEK-293(EBNA) cells expressing hEP2/Gqs5. In kind it is cell-based. To be noted: bottom number in Table 2, read-out: hEP2 functional EC50. How it is done:
as §4
Cells were seeded at a density of 5×10^4 cells per well in Biocoat® Poly-D-lysine-coated black-wall, clear-bottom 96-well plates (Becton-Dickinson) and allowed to attach overnight in an incubator at 37° C. Cells were then washed two times with HBSS-HEPES buffer (Hanks Balanced Salt Solution without bicarbonate and phenol red, 20 mM HEPES, pH 7.4) using a Denley Cellwash plate washer (Labsystems). […]
Cells were excited with an Argon laser at 488 nm, and emission was measured through a 510-570 nm bandwidth emission filter (FLIPR™, Molecular Devices, Sunnyvale, Calif.). […] The peak increase in fluorescence intensity was recorded for each well. […] The peak fluorescence change in each drug-containing well was then expressed relative to the controls. […]

SMILES strings stand for the structures. Bounds are passed on as bounds.

T1 sequence (P43116 whole entry): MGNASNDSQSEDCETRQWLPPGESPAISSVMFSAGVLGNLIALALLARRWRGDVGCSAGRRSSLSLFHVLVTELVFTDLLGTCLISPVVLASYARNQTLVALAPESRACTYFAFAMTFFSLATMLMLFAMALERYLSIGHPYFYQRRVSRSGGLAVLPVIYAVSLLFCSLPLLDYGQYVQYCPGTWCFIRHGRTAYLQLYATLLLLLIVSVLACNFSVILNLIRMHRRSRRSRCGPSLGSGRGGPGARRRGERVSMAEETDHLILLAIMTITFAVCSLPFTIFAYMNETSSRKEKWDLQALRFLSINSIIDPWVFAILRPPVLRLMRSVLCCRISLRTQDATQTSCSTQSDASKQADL
Chain of hEP3A (P43115 whole entry): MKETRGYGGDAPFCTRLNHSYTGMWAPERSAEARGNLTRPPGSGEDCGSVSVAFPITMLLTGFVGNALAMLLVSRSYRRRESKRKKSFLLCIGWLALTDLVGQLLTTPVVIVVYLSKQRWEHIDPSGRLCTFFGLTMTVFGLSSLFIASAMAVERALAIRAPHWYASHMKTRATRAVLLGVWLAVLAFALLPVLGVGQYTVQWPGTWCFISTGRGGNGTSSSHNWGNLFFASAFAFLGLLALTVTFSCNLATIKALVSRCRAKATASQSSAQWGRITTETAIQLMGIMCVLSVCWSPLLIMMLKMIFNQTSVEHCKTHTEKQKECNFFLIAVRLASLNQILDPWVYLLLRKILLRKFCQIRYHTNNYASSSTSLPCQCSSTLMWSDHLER
Chain of hIP (P43119 whole entry): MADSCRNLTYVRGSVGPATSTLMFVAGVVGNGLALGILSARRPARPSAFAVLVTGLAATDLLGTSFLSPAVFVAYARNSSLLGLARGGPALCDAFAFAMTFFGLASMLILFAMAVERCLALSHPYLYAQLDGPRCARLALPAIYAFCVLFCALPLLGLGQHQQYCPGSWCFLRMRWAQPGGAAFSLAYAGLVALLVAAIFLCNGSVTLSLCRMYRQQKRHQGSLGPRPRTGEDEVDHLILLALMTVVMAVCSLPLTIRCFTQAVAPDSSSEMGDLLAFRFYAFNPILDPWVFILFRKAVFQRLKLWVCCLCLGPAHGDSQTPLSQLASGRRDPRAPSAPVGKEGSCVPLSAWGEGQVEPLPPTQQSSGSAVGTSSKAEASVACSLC
T2 sequence (P35408 whole entry, looked up): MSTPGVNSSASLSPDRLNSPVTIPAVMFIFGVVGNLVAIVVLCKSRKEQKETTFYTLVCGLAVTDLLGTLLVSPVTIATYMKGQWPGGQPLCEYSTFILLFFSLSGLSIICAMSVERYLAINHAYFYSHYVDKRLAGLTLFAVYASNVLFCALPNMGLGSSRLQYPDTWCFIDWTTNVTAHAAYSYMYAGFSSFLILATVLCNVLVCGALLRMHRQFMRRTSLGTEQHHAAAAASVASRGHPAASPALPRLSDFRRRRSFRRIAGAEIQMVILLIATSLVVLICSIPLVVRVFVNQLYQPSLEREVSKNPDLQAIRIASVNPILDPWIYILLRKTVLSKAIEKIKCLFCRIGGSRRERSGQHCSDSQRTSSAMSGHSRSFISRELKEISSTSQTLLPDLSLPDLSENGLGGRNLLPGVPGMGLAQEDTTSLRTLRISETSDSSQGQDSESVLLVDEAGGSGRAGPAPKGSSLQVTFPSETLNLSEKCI

As for `COC(=O)CSCCCS[C@H]1C(=O)C(C)(C)[C@@H](O)[C@@H]1/C=C/C(O)CCc1sc2ccccc2c1Cl` (single isomer, unassigned) [Compound 21], in experiment [1], the hEP2 radioligand binding IC50 is > 10000 nM. In experiment [2], this molecule came in with an IC50 of 98 nM.

In turn, `CC1(C)C(=O)[C@H](CC#CCCCC(=O)O)[C@@H](/C=C/C(O)CCc2sc3ccccc3c2Cl)[C@@H]1O` (single isomer, unassigned) [Compound 36] gave an IC50 in experiment [2] of 200 nM. The hIP radioligand binding IC50 in experiment [3] was > 10000 nM. In addition, the EC50 in experiment [4] worked out at 66 nM.

In the case of `CCCCC[C@H](O)/C=C/[C@@H]1[C@@H](CC#CCCCC(=O)O)C(=O)C(C)(C)[C@H]1O` [Compound 43, 7-[(1R,4S,5R)-4-Hydroxy-5-((E)-(S)-3-hydroxy-oct-1-enyl)-3,3-dimethyl-2-oxo-cyclopentyl]-hept-5-ynoic acid], the IC50 in experiment [5] is > 10000 nM; in [6], 1700 nM; in experiment [2] it was 400 nM; in experiment [3], 3980 nM; in experiment [7], 18 nM. The EC50 in experiment [8] was 11 nM; in experiment [4], 63 nM.

As to `CC1(C)C(=O)[C@H](CC#CCCCC(=O)O)[C@@H](/C=C/C(O)CCc2sc3ccccc3c2Cl)[C@@H]1O` (single isomer, unassigned) [Compound 37], in [2], the IC50 was found to be 100 nM. For the same molecule, the hIP radioligand binding IC50 in experiment [3] was > 10000 nM. For the same molecule, the EC50 in experiment [4] is 32 nM.

As for `CCCCC[C@H](O)/C=C/[C@@H]1[C@@H](C/C=C\CCCC(=O)O)C(=O)C(C)(C)[C@H]1O` [Compound 44, (Z)-7-[(1R,4S,5R)-4-Hydroxy-5-((E)-(S)-3-hydroxy-oct-1-enyl)-3,3-dimethyl-2-oxo-cyclopentyl]-hept-5-enoic acid], the half-maximal inhibitory concentration (IC50) in [5] came to 782 nM; in experiment [1], 1500 nM; in experiment [6], 300 nM; in [2] it was 5.5 nM; in experiment [3], 284 nM; in experiment [7], 18 nM. In experiment [9], the hDP radioligand binding IC50 is > 10000 nM. In addition, the results for the EC50 in experiment [10], in experiment [8] and in experiment [4] were 944 nM, 4.6 nM and 0.2 nM, respectively.

Take `CC1(C)C(=O)[C@H](C/C=C\CCCC(=O)O)[C@@H](/C=C/C(O)CCc2sc3ccccc3c2Cl)[C@@H]1O` (single isomer, unassigned) [Compound 41]: the hEP2 radioligand binding IC50 in experiment [1] was > 10000 nM. In [2], the IC50 was determined as 20 nM. For the same molecule, the hTP radioligand binding IC50 in experiment [7] was > 10000 nM.

As to `COC(=O)CCC/C=C\C[C@H]1C(=O)C(C)(C)[C@@H](O)[C@@H]1/C=C/C(O)CCc1ccccc1` (single isomer, unassigned) [Compound 50], the IC50 was 638 nM in experiment [5], 6610 nM in experiment [6] and 2400 nM in experiment [2]. In addition, the hTP radioligand binding IC50 in [7] was > 10000 nM. The hEP3A functional EC50 in experiment [8] (bottom number in Table 2) is > 10000 nM. Moreover, in [4], the EC50 came to 3160 nM.

As for `CC1(C)C(=O)[C@H](C/C=C\CCCC(=O)O)[C@@H](/C=C/C(O)Cc2ccccc2)[C@@H]1O` (single isomer, unassigned) [Compound 46], the IC50 in [5] turned out to be 290 nM; in experiment [2], 4 nM. Moreover, the hEP2 radioligand binding IC50 in [1] was > 10000 nM. In addition, in experiment [6], the hEP3D radioligand binding IC50 is > 10000 nM. Besides, the EC50 in [8] was 589 nM; in [4], 0.4 nM.

On to `CCCCC[C@H](O)/C=C/[C@@H]1[C@@H](C/C=C\CCCC(=O)OC)C(=O)C(C)(C)[C@H]1O` [Compound 45, (Z)-7-[(1R,4S,5R)-4-Hydroxy-5-((E)-(S)-3-hydroxy-oct-1-enyl)-3,3-dimethyl-2-oxo-cyclopentyl]-hept-5-enoic acid methyl ester], for which the IC50 in experiment [6] is > 10000 nM; in experiment [2], 400 nM; in experiment [7], 631 nM. Besides, the figures for the EC50 in experiment [8] and in experiment [4] were 531 nM and 51 nM, respectively.

Turning to `CCCCC[C@H](O)/C=C/[C@@H]1[C@@H](CC#CCCCC(=O)OC)C(=O)C(C)(C)[C@H]1O` [Compound 42, 7-[(1R,4S,5R)-4-Hydroxy-5-((E)-(S)-3-hydroxy-oct-1-enyl)-3,3-dimethyl-2-oxo-cyclopentyl]-hept-5-ynoic acid methyl ester], the IC50 in [6] and in experiment [2] was > 10000 nM throughout. For the same molecule, the EC50 in [8] is 559 nM.

One may read the IC50 as the concentration that inhibits the measured activity by half. A high value points to a need for much substance. By EC50 is commonly meant the midpoint of the concentration-response curve.
